Experimental data reported in patent US20100311107A1, “Ultra-High Throughput Screening of Natural Products” (priority 2004, published 2010).
Where two headings read alike, the source gives them in different places.

How the values were obtained:
Type in all cases: cell-based, Escherichia coli
[1] = test system: E. coli screening strain CM242; design: unit not given here; conditions: second Table 12, MHB medium
Method: (§1) The level of drug resistance of these screening strains (both intermediates and finals) was evaluated by standard MIC assay in MHB liquid medium and the result of Strain CM242 is summarized in Table 12.

[2] = test system: E. coli screening strain DR1212; design: unit not given here
Method: (§2) The level of drug-resistance of screening strain DR1212 was analyzed by standard MIC assay in MHB liquid medium and the result was summarized in Table 11. Similar to screening strains, DR1234 and CM166, DR1212 is also resistant to drugs whose resistant genes have been introduced.

[3] = test system: E. coli screening strain CM166; design: unit not given here; conditions: Table 9, MHB medium
Source text: (§3) The level of drug resistance of CM166 was estimated by MIC assay carried out in MHB liquid medium and the results were summarized in Table 9. CM166 is resistant to antibacterial agents whose resistant genes have been incorporated into the strain, but not to other antibacterial drugs whose resistant genes are not incorporated.

[4] = test system: E. coli screening strain DR1234; design: unit not given here
Method: (§4) The screening strain, DR1234, was established after all desired drug-resistant genes listed in Table 5 had been delivered into the parent E. coli strain, MG1655, by methods described above. Its level of drug resistance was analyzed by the standard minimum inhibitory concentration (MIC) assay in MHB liquid medium (Chantot, et al., 1986, “Antibacterial activity of roxithromycin: a laboratory evaluation,” J. Antibiot, 39(5):660-8) and the result was summarized in Table 7.

[5] = test system: E. coli screening strain CM400; design: unit not given here; conditions: Table 13, MHB medium
Method: (§5) The level of drug resistance of screening strains CM400 and CM435 was evaluated by standard MIC assay in MHB liquid medium and the results are summarized in Table 13. According to the MIC results, CM435 is hypersensitive to Bleomycin, Daunorucibin, Coumermycin A1 and Erythromycin. Screening strain CM435 and others, which are hypersensitive to certain types of antimicrobial agents, are advantageous in detecting bioactive compounds with low concentration in the screening system.

[6] = test system: E. coli screening strain CM435; design: Minimal inhibitory concentrations (MIC90) CM435: unit not given here; conditions: for Minimal inhibitory concentrations (MIC90) CM435: Table 13, MHB medium; for sensitivity of CM435 according to the MIC results: MHB liquid medium
E. coli MG1655 = test system: E. coli MG1655; design: unit not given here
Method: as §4, §3, §2, §1, §5

Row | Compound | Minimal inhibitory concentrations (MIC90) CM242 [1] | Minimal inhibitory concentrations (MIC90) DR1212 ([2]; Table 11, MHB medium) | Minimal inhibitory concentrations (MIC90) CM166 [3] | Minimal inhibitory concentrations (MIC90) DR1234 ([4]; Table 7, MHB medium) | Minimal inhibitory concentrations (MIC90) CM400 [5] | Minimal inhibitory concentrations (MIC90) CM435 [6] | Minimal inhibitory concentrations (MIC90) MG1655 (E. coli MG1655; Table 7, MHB medium) | Minimal inhibitory concentrations (MIC90) MG1655 (E. coli MG1655; Table 9, MHB medium) | Minimal inhibitory concentrations (MIC90) MG1655 (E. coli MG1655; Table 11, MHB medium) | Minimal inhibitory concentrations (MIC90) MG1655 (E. coli MG1655; Table 13, MHB medium) | Minimal inhibitory concentrations (MIC90) MG1655 (E. coli MG1655; second Table 12, MHB medium) | sensitivity of CM435 according to the MIC results [6] | Minimal inhibitory concentrations (MIC90) DR1212 [2] | Minimal inhibitory concentrations (MIC90) DR1234 [4]
1 | CC1(C)S[C@@H]2[C@H](NC(=O)[C@H](N)c3ccccc3)C(=O)N2[C@H]1C(=O)O [Ampicillin] | >400 | >400 | >400 | >400 | >64 | >64 | 1.6-3.2 | 1.6-3.2 | 1.6-3.2 | 8 | 1.6-3.2 | – | – | –
2 | CN[C@@H]1[C@@H](O[C@H]2O[C@H](CO)[C@@H](N)[C@H](O)[C@H]2O)OC2C[C@@H](N)[C@@H](O[C@H]3[C@H](O)[C@@H](O)[C@H](N)C[C@@H]3N)OC2[C@@H]1O (stereo partly shown) [Apramycin] | 400 | 1.6 | 200 | 400 | 64 | >64 | 3.2-6.3 | 3.2-6.3 | 3.2-6.3 | 4 | 3.2-6.3 | – | – | –
3 | C[C@H]1[C@H](NC(=O)/C(=N\OC(C)(C)C(=O)O)c2csc(N)n2)C(=O)N1S(=O)(=O)O [Aztreonam] | 0.3 | ≦0.05 | ≦0.05 | ≦0.05 | <0.06 | – | 0.1 | 0.1 | 0.1 | 0.06 | 0.1 | – | – | –
4 | O=C(N[C@H](CO)[C@H](O)c1ccc([N+](=O)[O-])cc1)C(Cl)Cl [Chloramphenicol] | 100 | 400 | 100 | 100 | >64 | >64 | 3.2 | 3.2 | 3.2 | 8 | 3.2 | – | – | –
5 | CO[C@H]1[C@H](OC(=O)c2ccc(C)[nH]2)[C@H](O)[C@@H](Oc2ccc3c(O)c(NC(=O)c4c[nH]c(C(=O)Nc5c(O)c6ccc(O[C@H]7OC(C)(C)[C@@H](OC)[C@H](OC(=O)c8ccc(C)[nH]8)[C@@H]7O)c(C)c6oc5=O)c4C)c(=O)oc3c2C)OC1(C)C [Coumermycin A1] | 6.3 | 3.2 | 6.3 | 3.2 | 64 | 4 | 12.5 | 12.5 | 12.5 | >64 | 12.5 | hypersensitive | – | –
6 | NC[C@@H]1CC[C@@H](N)[C@@H](O[C@H]2[C@H](O)[C@@H](O[C@H]3O[C@H](CO)[C@@H](O)[C@H](N)[C@H]3O)[C@H](N)C[C@@H]2N)O1 [Dibekacin] | 400 | – | – | – | – | – | – | – | – | – | 3.2 | – | – | –
7 | CC[C@H]1OC(=O)[C@H](C)[C@@H](O[C@H]2C[C@@](C)(OC)[C@@H](O)[C@H](C)O2)[C@H](C)[C@@H](O[C@@H]2O[C@H](C)C[C@H](N(C)C)[C@H]2O)[C@](C)(O)C[C@@H](C)C(=O)[C@H](C)[C@@H](O)[C@]1(C)O [Erythromycin] | 25 | 50 | 100 | 100 | 64 | 4 | 25 | 25 | 25 | >64 | 25 | hypersensitive | – | –
8 | NC[C@H]1O[C@H](O[C@H]2[C@H](O)[C@@H](O[C@H]3O[C@H](CO)[C@@H](O)[C@H](N)[C@H]3O)[C@H](N)C[C@@H]2N)[C@H](O)[C@@H](O)[C@@H]1O [Kanamycin] | >400 | – | >400 | – | >64 | >64 | – | – | – | – | – | – | 400 | >400
9 | CCN[C@@H]1C[C@H](N)[C@@H](O[C@H]2OC(CN)=CC[C@H]2N)[C@H](O)[C@H]1O[C@H]1OC[C@](C)(O)[C@H](NC)[C@H]1O [Netilmycin] | 200 | 400 | 400 | 200 | >64 | 64 | 1.6 | 1.6 | 1.6 | 0.5 | 1.6 | – | – | –
10 | CO[C@H]1/C=C/O[C@@]2(C)Oc3c(C)c(O)c4c(O)c(cc(O)c4c3C2=O)NC(=O)/C(C)=C\C=C\[C@H](C)[C@H](O)[C@@H](C)[C@@H](O)[C@@H](C)[C@H](OC(C)=O)[C@@H]1C [Rifamycin] | – | – | – | – | >64 | 16 | – | – | – | 16 | – | – | – | –
11 | [H]/N=C(/N)N[C@H]1[C@H](O)[C@@H](O)[C@H](O[C@@H]2O[C@@H](C)[C@](O)(C=O)[C@H]2O[C@@H]2O[C@@H](CO)[C@H](O)[C@@H](O)[C@@H]2NC)[C@@H](N/C(N)=N\[H])[C@@H]1O [Streptomycin] | >400 | >400 | >400 | >400 | >64 | >64 | 3.2 | 3.2 | 3.2 | 4 | 3.2 | – | – | –
12 | CN(C)[C@@H]1C(O)=C(C(N)=O)C(=O)[C@@]2(O)C(O)=C3C(=O)c4c(O)cccc4[C@@](C)(O)[C@H]3C[C@@H]12 [Tetracycline] | >400 | – | 100 | – | >64 | 64 | 0.4-3.2 | 0.4-3.2 | 0.4-3.2 | 2 | 0.4-3.2 | – | 100 | 100
13 | NC[C@H]1O[C@H](O[C@H]2[C@H](O)[C@@H](O[C@H]3O[C@H](CO)[C@@H](O)[C@H](N)[C@H]3O)[C@H](N)C[C@@H]2N)[C@H](N)C[C@@H]1O [Tobramycin] | 100 | 25 | >400 | 50 | – | – | 0.4 | 0.4 | 0.4 | – | 0.4 | – | – | –
14 | Actinomycin C | 200 | 25.0 | 50 | 100 | >256 | >256 | 50 | 50 | 50 | 256 | 50 | – | – | –
